In PubChem BioAssay AID1919006 (Molecular Pharmacology Branch, DTP, NCI, 2023):

System: 885512-296-R-J2-PDC complex spheroid growth, % test/control
Test: Anticancer human tumor 885512-296-R-J2-PDC patient-derived breast carcinoma cell line growth inhibition [AhR]
Conditions: for IC50: curve of first compound; for viability, T/C: stronger effect = lower value
Outline: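 Complex tumor spheroids co-cultured with HUVEC and human MSC stroma; AhR antagonists tested in combination with standard-of-care and investigational agents. Top concentration at or near clinical Cmax (else 10 microM), half-log dilutions; growth expressed as percent test/control.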

[1] = second compound 0.1 µM, first compound 0.0316 µM
[2] = second compound 0.1 µM, first compound 0.1 µM
[3] = second compound 0.1 µM, first compound 0.316 µM
[4] = second compound 0.1 µM, first compound 1 µM
[5] = second compound 0.1 µM, first compound 3.16 µM
[6] = second compound 0.1 µM, first compound 10 µM
[7] = second compound 0.316 µM, first compound 0.0316 µM
[8] = second compound 0.316 µM, first compound 0.1 µM
[9] = second compound 0.316 µM, first compound 0.316 µM
[10] = second compound 0.316 µM, first compound 1 µM
[11] = second compound 0.316 µM, first compound 3.16 µM
[12] = second compound 0.316 µM, first compound 10 µM
[13] = second compound 1 µM, first compound 0.0316 µM
[14] = second compound 1 µM, first compound 0.1 µM
[15] = second compound 1 µM, first compound 0.316 µM
[16] = second compound 1 µM, first compound 1 µM
[17] = second compound 1 µM, first compound 3.16 µM
[18] = second compound 1 µM, first compound 10 µM
[19] = second compound 3.16 µM, first compound 0.0316 µM
[20] = second compound 3.16 µM, first compound 0.1 µM
[21] = second compound 3.16 µM, first compound 0.316 µM
[22] = second compound 3.16 µM, first compound 1 µM
[23] = second compound 3.16 µM, first compound 3.16 µM
[24] = second compound 3.16 µM, first compound 10 µM
[25] = second compound 10 µM, first compound 0.0316 µM
[26] = second compound 10 µM, first compound 0.1 µM
[27] = second compound 10 µM, first compound 0.316 µM
[28] = second compound 10 µM, first compound 1 µM
[29] = second compound 10 µM, first compound 3.16 µM
[30] = second compound 10 µM, first compound 10 µM
[31] = second compound 0.1 µM, first compound 0.00949 µM
[32] = second compound 0.1 µM, first compound 0.03 µM
[33] = second compound 0.1 µM, first compound 0.0949 µM
[34] = second compound 0.1 µM, first compound 0.3 µM
[35] = second compound 0.1 µM, first compound 0.949 µM
[36] = second compound 0.1 µM, first compound 3 µM
[37] = second compound 0.316 µM, first compound 0.00949 µM
[38] = second compound 0.316 µM, first compound 0.03 µM
[39] = second compound 0.316 µM, first compound 0.0949 µM
[40] = second compound 0.316 µM, first compound 0.3 µM
[41] = second compound 0.316 µM, first compound 0.949 µM
[42] = second compound 0.316 µM, first compound 3 µM
[43] = second compound 1 µM, first compound 0.00949 µM
[44] = second compound 1 µM, first compound 0.03 µM
[45] = second compound 1 µM, first compound 0.0949 µM
[46] = second compound 1 µM, first compound 0.3 µM
[47] = second compound 1 µM, first compound 0.949 µM
[48] = second compound 1 µM, first compound 3 µM
[49] = second compound 3.16 µM, first compound 0.00949 µM
[50] = second compound 3.16 µM, first compound 0.03 µM
[51] = second compound 3.16 µM, first compound 0.0949 µM
[52] = second compound 3.16 µM, first compound 0.3 µM
[53] = second compound 3.16 µM, first compound 0.949 µM
[54] = second compound 3.16 µM, first compound 3 µM
[55] = second compound 10 µM, first compound 0.00949 µM
[56] = second compound 10 µM, first compound 0.03 µM
[57] = second compound 10 µM, first compound 0.0949 µM
[58] = second compound 10 µM, first compound 0.3 µM
[59] = second compound 10 µM, first compound 0.949 µM
[60] = second compound 10 µM, first compound 3 µM
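Further: spheroids exposed to compounds for seven days.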

CC1(C)CCC(CN2CCN(c3ccc(C(=O)NS(=O)(=O)c4ccc(NCC5CCOCC5)c([N+](=O)[O-])c4)c(Oc4cnc5[nH]ccc5c4)c3)CC2)=C(c2ccc(Cl)cc2)C1 + Cc1cncc(-c2nc(NCCc3c[nH]c4ccccc34)c3ncn(C(C)C)c3n2)c1
IC50 (second compound 0.1 µM): 5310 nM | IC50 (second compound 0.316 µM): 5220 nM | IC50 (second compound 1 µM): 3860 nM | IC50 (second compound 3.16 µM): < 31.6 nM | IC50 (second compound 10 µM): < 31.6 nM | viability, T/C [1]: 108% | viability, T/C [2]: 120% | viability, T/C [3]: 100% | viability, T/C [4]: 97.9% | viability, T/C [5]: 73% | viability, T/C [6]: 21.9% | viability, T/C [7]: 95.8% | viability, T/C [8]: 98.3% | viability, T/C [9]: 97% | viability, T/C [10]: 100% | viability, T/C [11]: 68.4% | viability, T/C [12]: 26.2% | viability, T/C [13]: 87.5% | viability, T/C [14]: 84.5% | viability, T/C [15]: 77.8% | viability, T/C [16]: 71.8% | viability, T/C [17]: 57% | viability, T/C [18]: 23.2% | viability, T/C [19]: 42.2% | viability, T/C [20]: 49.5% | viability, T/C [21]: 50.7% | viability, T/C [22]: 41.4% | viability, T/C [23]: 39.7% | viability, T/C [24]: 29.8% | viability, T/C [25]: 12.7% | viability, T/C [26]: 13.7% | viability, T/C [27]: 14.3% | viability, T/C [28]: 12.4% | viability, T/C [29]: 13.8% | viability, T/C [30]: 10.1%

CC1COCCN1c1cc(C2(S(C)(=N)=O)CC2)nc(-c2ccnc3[nH]ccc23)n1 (stereo not given) + Cc1cncc(-c2nc(NCCc3c[nH]c4ccccc34)c3ncn(C(C)C)c3n2)c1
IC50 (second compound 0.1 µM): 2280 nM | IC50 (second compound 0.316 µM): 1950 nM | IC50 (second compound 1 µM): 1510 nM | IC50 (second compound 3.16 µM): 282 nM | IC50 (second compound 10 µM): < 31.6 nM | viability, T/C [1]: 99.8% | viability, T/C [2]: 102% | viability, T/C [3]: 103% | viability, T/C [4]: 95% | viability, T/C [5]: 32.3% | viability, T/C [6]: 4.89% | viability, T/C [7]: 99.2% | viability, T/C [8]: 99.5% | viability, T/C [9]: 97.3% | viability, T/C [10]: 81.9% | viability, T/C [11]: 26.9% | viability, T/C [12]: 6.7% | viability, T/C [13]: 86.4% | viability, T/C [14]: 86.1% | viability, T/C [15]: 82.9% | viability, T/C [16]: 64.7% | viability, T/C [17]: 23.6% | viability, T/C [18]: 4.77% | viability, T/C [19]: 65% | viability, T/C [20]: 55.3% | viability, T/C [21]: 47.7% | viability, T/C [22]: 42.4% | viability, T/C [23]: 20.4% | viability, T/C [24]: 6.04% | viability, T/C [25]: 22.3% | viability, T/C [26]: 22.7% | viability, T/C [27]: 19.9% | viability, T/C [28]: 18.2% | viability, T/C [29]: 12.5% | viability, T/C [30]: 5%

CCN(c1cc(-c2ccc(CN3CCOCC3)cc2)cc(C(=O)NCc2c(C)cc(C)[nH]c2=O)c1C)C1CCOCC1 + Cc1cncc(-c2nc(NCCc3c[nH]c4ccccc34)c3ncn(C(C)C)c3n2)c1
IC50 (second compound 0.1 µM): > 3000 nM | IC50 (second compound 0.316 µM): > 3000 nM | IC50 (second compound 1 µM): > 3000 nM | IC50 (second compound 3.16 µM): > 3000 nM | IC50 (second compound 10 µM): < 9.49 nM | viability, T/C [31]: 98.8% | viability, T/C [32]: 104% | viability, T/C [33]: 91.3% | viability, T/C [34]: 87.8% | viability, T/C [35]: 94.8% | viability, T/C [36]: 83.3% | viability, T/C [37]: 102% | viability, T/C [38]: 105% | viability, T/C [39]: 98% | viability, T/C [40]: 94.9% | viability, T/C [41]: 88.5% | viability, T/C [42]: 74.8% | viability, T/C [43]: 91.4% | viability, T/C [44]: 93.5% | viability, T/C [45]: 85.7% | viability, T/C [46]: 73.6% | viability, T/C [47]: 72.8% | viability, T/C [48]: 80.1% | viability, T/C [49]: 58.6% | viability, T/C [50]: 62.1% | viability, T/C [51]: 59.9% | viability, T/C [52]: 58.8% | viability, T/C [53]: 53.5% | viability, T/C [54]: 54.8% | viability, T/C [55]: 21.8% | viability, T/C [56]: 24.6% | viability, T/C [57]: 24.4% | viability, T/C [58]: 18.8% | viability, T/C [59]: 13% | viability, T/C [60]: 8.18%

Nc1ncn(C2CC(O)C(CO)S2)c(=O)n1 (stereo not given) + Cc1cncc(-c2nc(NCCc3c[nH]c4ccccc34)c3ncn(C(C)C)c3n2)c1
IC50 (second compound 0.1 µM): 96.6 nM | IC50 (second compound 0.316 µM): 93.9 nM | IC50 (second compound 1 µM): 44.8 nM | IC50 (second compound 3.16 µM): 3.46 nM | IC50 (second compound 10 µM): < 0.949 nM | viability, T/C (second compound 0.1 µM, first compound 0.000949 µM): 99.5% | viability, T/C (second compound 0.1 µM, first compound 0.003 µM): 110% | viability, T/C [31]: 107% | viability, T/C [32]: 79% | viability, T/C [33]: 53% | viability, T/C [34]: 40.9% | viability, T/C (second compound 0.316 µM, first compound 0.000949 µM): 98% | viability, T/C (second compound 0.316 µM, first compound 0.003 µM): 94.1% | viability, T/C [37]: 99.1% | viability, T/C [38]: 75.9% | viability, T/C [39]: 51.3% | viability, T/C [40]: 38.8% | viability, T/C (second compound 1 µM, first compound 0.000949 µM): 67.6% | viability, T/C (second compound 1 µM, first compound 0.003 µM): 67.8% | viability, T/C [43]: 70.7% | viability, T/C [44]: 55.7% | viability, T/C [45]: 38.8% | viability, T/C [46]: 33.1% | viability, T/C (second compound 3.16 µM, first compound 0.000949 µM): 47.4% | viability, T/C (second compound 3.16 µM, first compound 0.003 µM): 54.8% | viability, T/C [49]: 47.8% | viability, T/C [50]: 42.5% | viability, T/C [51]: 36% | viability, T/C [52]: 27.5% | viability, T/C (second compound 10 µM, first compound 0.000949 µM): 21% | viability, T/C (second compound 10 µM, first compound 0.003 µM): 23.5% | viability, T/C [55]: 18.9% | viability, T/C [56]: 15% | viability, T/C [57]: 17.4% | viability, T/C [58]: 13.9%

O=C(C=Cn1cnc(-c2cc(C(F)(F)F)cc(C(F)(F)F)c2)n1)NNc1cnccn1 + Cc1cncc(-c2nc(NCCc3c[nH]c4ccccc34)c3ncn(C(C)C)c3n2)c1
IC50 (second compound 0.1 µM): 60.6 nM | IC50 (second compound 0.316 µM): 69.2 nM | IC50 (second compound 1 µM): 65.8 nM | IC50 (second compound 3.16 µM): 42.5 nM | IC50 (second compound 10 µM): < 9.49 nM | viability, T/C [31]: 93.3% | viability, T/C [32]: 99.9% | viability, T/C [33]: 20.3% | viability, T/C [34]: 4.2% | viability, T/C [35]: 2.2% | viability, T/C [36]: 1.61% | viability, T/C [37]: 97.4% | viability, T/C [38]: 93% | viability, T/C [39]: 33.8% | viability, T/C [40]: 5.36% | viability, T/C [41]: 2.35% | viability, T/C [42]: 1.45% | viability, T/C [43]: 98.2% | viability, T/C [44]: 89.4% | viability, T/C [45]: 31.6% | viability, T/C [46]: 4.92% | viability, T/C [47]: 2.78% | viability, T/C [48]: 1.53% | viability, T/C [49]: 64.6% | viability, T/C [50]: 66.2% | viability, T/C [51]: 14.8% | viability, T/C [52]: 5.25% | viability, T/C [53]: 2.77% | viability, T/C [54]: 1.58% | viability, T/C [55]: 19.2% | viability, T/C [56]: 16.8% | viability, T/C [57]: 8.05% | viability, T/C [58]: 4.48% | viability, T/C [59]: 3.45% | viability, T/C [60]: 2.01%
